Data as given in article PMC8150913, “Chromene-Containing Aromatic Sulfonamides with Carbonic Anhydrase Inhibitory Properties” (International Journal of Molecular Sciences, 2021).

Legend:
hCA II = target: T1, hCA II (Homo sapiens, UniProt P00918); assay: Stopped-flow CA-catalyzed CO2 hydration inhibition assay; type: biochemical; conditions: for Ki: stopped flow technique, mean from three different assays, recombinant enzyme, pH 7.4
T1 construct: made in house
Protocol: (§1) An Applied Photophysics stopped-flow instrument was used for assaying the CA catalyzed CO2 hydration activity. Phenol red (at a concentration of 0.2 mM) was used as an indicator, working at the absorbance maximum of 557 nm, with 20 mM Hepes (pH 7.4) as a buffer, and 20 mM Na2SO4 (for maintaining constant ionic strength), following the initial rates of the CA-catalyzed CO2 hydration reaction for a period of 10–100 s. The CO2 concentrations ranged from 1.7 to 17 mM for the determination of the kinetic parameters and inhibition constants. […] However, the background activity from the uncatalyzed reaction is always subtracted when IC50 values are obtained by using the data analysis software for the stopped flow instrument. […] For each inhibitor, at least six traces of the initial 5–10% of the reaction were used for determining the initial velocity. The uncatalyzed rates were determined in the same manner and subtracted from the total observed rates. Stock solutions of the inhibitor (0.1 mM) were prepared in distilled, deionized water, and dilutions up to 0.01 nM were done thereafter with the assay buffer. Inhibitor and enzyme solutions were preincubated together for 15 min at room temperature prior to the assay, allowing the formation of the E–I complex. The inhibition constants were obtained by non-linear least-squares methods using PRISM 3 and the Cheng-Prusoff equation as reported earlier, which represent the mean from at least three different determinations. All CA isoforms were recombinant proteins obtained in house, as reported earlier.

hCA I = target: T2, hCA I (Homo sapiens, UniProt P00915); assay: as above; type: biochemical; conditions: stopped flow technique, mean from three different assays, recombinant enzyme, pH 7.4
T2 construct: made in house
T2 sequence (P00915 whole entry): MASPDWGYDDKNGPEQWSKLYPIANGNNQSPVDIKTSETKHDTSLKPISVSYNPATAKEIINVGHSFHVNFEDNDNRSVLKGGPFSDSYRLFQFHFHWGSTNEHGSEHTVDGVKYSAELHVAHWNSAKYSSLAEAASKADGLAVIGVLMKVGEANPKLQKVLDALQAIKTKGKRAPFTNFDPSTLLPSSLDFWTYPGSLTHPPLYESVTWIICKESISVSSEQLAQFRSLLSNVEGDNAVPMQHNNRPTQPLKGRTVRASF
Protocol: as §1

hCA IX = target: T3, hCA IX (Homo sapiens, UniProt Q16790); assay: as above; type: biochemical; conditions: stopped flow technique, mean from three different assays, recombinant enzyme, pH 7.4
T3 construct: made in house
Protocol: as §1

hCA XII = target: T4, hCA XII (Homo sapiens, UniProt O43570); assay: as above; type: biochemical; conditions: stopped flow technique, mean from three different assays, recombinant enzyme, pH 7.4
T4 construct: made in house
T4 sequence (O43570 25-354): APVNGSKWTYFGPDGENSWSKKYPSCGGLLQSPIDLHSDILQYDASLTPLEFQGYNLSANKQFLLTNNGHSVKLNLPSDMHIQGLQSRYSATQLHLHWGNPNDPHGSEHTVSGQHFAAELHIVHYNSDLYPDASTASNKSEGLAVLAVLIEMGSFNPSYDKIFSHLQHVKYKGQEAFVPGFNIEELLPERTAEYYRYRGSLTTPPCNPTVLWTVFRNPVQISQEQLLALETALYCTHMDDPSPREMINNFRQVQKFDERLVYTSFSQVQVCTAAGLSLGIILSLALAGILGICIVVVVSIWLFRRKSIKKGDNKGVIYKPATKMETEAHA
Protocol: as §1

| melting point | Ki (hCA II) | Ki (hCA I) | Ki (hCA IX) | Ki (hCA XII) | selectivity index (SI) hCA II compared to hCA I (hCA II; ratio of Ki values) | selectivity index (SI) hCA II compared to hCA XII (hCA II; ratio of Ki values) | Structure (SMILES) |
| --- | --- | --- | --- | --- | --- | --- | --- |
| 328 to 330 °C | 9.3 ± 0.5 nM | 341 ± 29.6 nM | 19.5 ± 1.6 nM | 76.3 ± 6 nM |  |  | Cc1ccc2c(=O)cc(C(=O)Nc3ccc(S(N)(=O)=O)cc3)oc2c1C [5f, 7,8-Dimethyl-4-oxo-N-(4-sulfamoylphenyl)-4H-chromene-2-carboxamide] |
| 282 to 284 °C | 51.2 ± 3.6 nM | 547 ± 39.2 nM | 51.4 ± 4.5 nM | 22.6 ± 1.5 nM |  |  | Cc1cc2oc(C(=O)NCCc3ccc(S(N)(=O)=O)cc3)cc(=O)c2cc1C [6h, 6,7-Dimethyl-4-oxo-N-(4-sulfamoylphenethyl)-4H-chromene-2-carboxamide] |
| 309 to 311 °C | 39.5 ± 3.2 nM | 3560 ± 228 nM | 63.4 ± 6.3 nM | 50.8 ± 4.3 nM |  |  | Cc1ccc2c(=O)cc(C(=O)Nc3ccc(S(N)(=O)=O)cc3)oc2c1 [5c, 7-Methyl-4-oxo-N-(4-sulfamoylphenyl)-4H-chromene-2-carboxamide] |
| 248 to 250 °C | 16.6 ± 1.2 nM | 322 ± 27.9 nM | 81 ± 7.7 nM | 212 ± 13.7 nM |  |  | NS(=O)(=O)c1ccc(CCNC(=O)c2cc(=O)c3ccccc3o2)cc1 [6d, 4-Oxo-N-(4-sulfamoylphenethyl)-4H-chromene-2-carboxamide] |
| 284 to 286 °C | 219 ± 11.8 nM | 628 ± 35.5 nM | 855 ± 49.2 nM | 34 ± 2.2 nM |  |  | NS(=O)(=O)c1ccc(CNC(=O)c2cc(=O)c3ccccc3o2)cc1 [6a, 4-Oxo-N-(4-sulfamoylbenzyl)-4H-chromene-2-carboxamide] |
| 297 to 299 °C |  |  |  |  |  |  | CCc1ccc2oc(C(=O)Nc3ccc(S(N)(=O)=O)cc3)cc(=O)c2c1 [5d, 6-Ethyl-4-oxo-N-(4-sulfamoylphenyl)-4H-chromene-2-carboxamide] |
| 307 to 308 °C | 95.9 ± 8 nM | 5310 ± 272 nM | 77 ± 6.5 nM | 64.8 ± 6.1 nM |  |  | Cc1ccc2oc(C(=O)Nc3ccc(S(N)(=O)=O)cc3)cc(=O)c2c1 [5b, 6-Methyl-4-oxo-N-(4-sulfamoylphenyl)-4H-chromene-2-carboxamide] |
| 296 to 298 °C | 66.2 ± 5.8 nM | 2700 ± 265 nM | 51 ± 4.8 nM | 425 ± 41 nM |  |  | NS(=O)(=O)c1ccc(NC(=O)c2cc(=O)c3cc(Cl)ccc3o2)cc1 [5i, 6-Chloro-4-oxo-N-(4-sulfamoylphenyl)-4H-chromene-2-carboxamide] |
| 257 to 259 °C | 36.4 ± 2.1 nM | 247 ± 24.3 nM | 72.7 ± 4.3 nM | 439 ± 32.2 nM |  |  | Cc1ccc2oc(C(=O)NCCc3ccc(S(N)(=O)=O)cc3)cc(=O)c2c1 [6e, 6-Methyl-4-oxo-N-(4-sulfamoylphenethyl)-4H-chromene-2-carboxamide] |
| 283 to 285 °C | 143 ± 12.8 nM | 4410 ± 347 nM | 91.1 ± 8.9 nM | 31.4 ± 2.6 nM |  |  | Cc1cc(C)c2oc(C(=O)NCCc3ccc(S(N)(=O)=O)cc3)cc(=O)c2c1 [6j, 6,8-Dimethyl-4-oxo-N-(4-sulfamoylphenethyl)-4H-chromene-2-carboxamide] |
| 310 to 312 °C | 311 ± 28.3 nM | 2890 ± 161 nM | 299 ± 18.4 nM | 619 ± 36.7 nM |  |  | Cc1cc2oc(C(=O)Nc3ccc(S(N)(=O)=O)cc3)cc(=O)c2cc1C [5e, 6,7-Dimethyl-4-oxo-N-(4-sulfamoylphenyl)-4H-chromene-2-carboxamide] |
| 253 to 255 °C | 7.5 ± 0.5 nM | 334 ± 17.5 nM | 64.8 ± 3.4 nM | 337 ± 27.4 nM | 44.47 | 44.97 | Cc1ccc2c(=O)cc(C(=O)NCCc3ccc(S(N)(=O)=O)cc3)oc2c1 [6f, 7-Methyl-4-oxo-N-(4-sulfamoylphenethyl)-4H-chromene-2-carboxamide] |
| 257 to 259 °C | 280 ± 15.5 nM | 971 ± 82.4 nM | 183 ± 16.1 nM | 148 ± 8.1 nM |  |  | CCc1ccc2oc(C(=O)NCCc3ccc(S(N)(=O)=O)cc3)cc(=O)c2c1 [6g, 6-Ethyl-4-oxo-N-(4-sulfamoylphenethyl)-4H-chromene-2-carboxamide] |
| 293 to 295 °C | 81.7 ± 4.2 nM | 612 ± 49.5 nM | 2040 ± 189 nM | 320 ± 23.2 nM |  |  | Cc1ccc2oc(C(=O)NCc3ccc(S(N)(=O)=O)cc3)cc(=O)c2c1 [6b, 6-Methyl-4-oxo-N-(4-sulfamoylbenzyl)-4H-chromene-2-carboxamide] |
| 285 to 287 °C | 91.6 ± 7 nM | 927 ± 68.9 nM | 1920 ± 146 nM | 41.4 ± 3.4 nM |  |  | NS(=O)(=O)c1ccc(CCNC(=O)c2cc(=O)c3cc(Cl)ccc3o2)cc1 [6k, 6-Chloro-4-oxo-N-(4-sulfamoylphenethyl)-4H-chromene-2-carboxamide] |
| 299 to 301 °C | 679 ± 45 nM | 2650 ± 227 nM | 3280 ± 302 nM | 59.4 ± 5 nM |  |  | NS(=O)(=O)c1ccc(CNC(=O)c2cc(=O)c3cc(Cl)ccc3o2)cc1 [6c, 6-Chloro-4-oxo-N-(4-sulfamoylbenzyl)-4H-chromene-2-carboxamide] |
| 280 to 282 °C | 39.2 ± 3.7 nM | 214 ± 15.9 nM | 84.5 ± 4.3 nM | 132 ± 11 nM |  |  | Cc1ccc2c(=O)cc(C(=O)NCCc3ccc(S(N)(=O)=O)cc3)oc2c1C [6i, 7,8-Dimethyl-4-oxo-N-(4-sulfamoylphenethyl)-4H-chromene-2-carboxamide] |
| 305 to 307 °C | 901 ± 75.4 nM | 580 ± 50.5 nM | 516 ± 37.2 nM | 155 ± 10.1 nM |  |  | Cc1cc2oc(C(=O)Nc3ccc(S(N)(=O)=O)cc3)cc(=O)c2cc1Cl [5j, 6-Chloro-7-methyl-4-oxo-N-(4-sulfamoylphenyl)-4H-chromene-2-carboxamide] |
| 309 to 311 °C | 46.6 ± 2.9 nM | 505 ± 27 nM | 22.5 ± 1.9 nM | 26.8 ± 1.4 nM |  |  | Cc1cc(C)c2oc(C(=O)Nc3ccc(S(N)(=O)=O)cc3)cc(=O)c2c1 [5h, 6,8-Dimethyl-4-oxo-N-(4-sulfamoylphenyl)-4H-chromene-2-carboxamide] |
| 296 to 298 °C | 35.1 ± 3.3 nM | 525 ± 44.4 nM | 16.6 ± 1.5 nM | 20.1 ± 1.7 nM |  |  | NS(=O)(=O)c1ccc(NC(=O)c2cc(=O)c3ccccc3o2)cc1 [5a, 4-Oxo-N-(4-sulfamoylphenyl)-4H-chromene-2-carboxamide] |
| 304 to 306 °C | 61.4 ± 4.4 nM | 682 ± 40.6 nM | 54.7 ± 5 nM | 46.4 ± 4.4 nM |  |  | Cc1cc(C)c2c(=O)cc(C(=O)Nc3ccc(S(N)(=O)=O)cc3)oc2c1 [5g, 5,7-Dimethyl-4-oxo-N-(4-sulfamoylphenyl)-4H-chromene-2-carboxamide] |
